Measurements as given in US9102688B2, “Sulfonaminoquinoline hepcidin antagonists” (Vifor (International) AG, priority 2011, dated 2015).

What follows are molecules tested against T1, human ferroportin (Homo sapiens, UniProt Q9NP59) (assay: ferroportin internalization assay (inhibition of hepcidin-induced internalization of Fpn)). Conditions: MDCK-FPN-HaloTag cells, 100 nM hepcidin, overnight incubation; concentration range from 0.04 to 40 μM.
T1 construct: expressed in transfected cells
T1 sequence (Q9NP59 1-571): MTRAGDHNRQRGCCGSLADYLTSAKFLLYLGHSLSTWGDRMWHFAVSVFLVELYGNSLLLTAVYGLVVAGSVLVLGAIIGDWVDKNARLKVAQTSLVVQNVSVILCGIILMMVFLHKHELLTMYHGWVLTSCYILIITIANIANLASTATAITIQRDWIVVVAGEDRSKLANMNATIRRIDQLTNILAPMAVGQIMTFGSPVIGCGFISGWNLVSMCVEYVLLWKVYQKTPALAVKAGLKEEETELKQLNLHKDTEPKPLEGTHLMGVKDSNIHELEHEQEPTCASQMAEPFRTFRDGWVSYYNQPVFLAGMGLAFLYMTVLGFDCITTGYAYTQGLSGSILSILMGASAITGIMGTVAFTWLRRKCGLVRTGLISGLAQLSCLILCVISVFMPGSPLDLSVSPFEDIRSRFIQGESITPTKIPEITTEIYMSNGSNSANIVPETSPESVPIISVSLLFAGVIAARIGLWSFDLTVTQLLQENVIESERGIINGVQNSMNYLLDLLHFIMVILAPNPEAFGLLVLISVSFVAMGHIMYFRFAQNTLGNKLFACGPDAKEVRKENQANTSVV
Assay type: cell-based
Procedure: The hepcidin-antagonistic action of the sulfonaminoquinoline compounds of the present invention was determined by means of the “ferroportin internalization assay” described in the following.
Organic compounds of low molecular weight which counteract the biological actions of hepcidin on its receptor, the iron exporter ferroportin (Fpn), were identified on the basis of their ability to inhibit hepcidin-induced internalization of Fpn in living cells. For this purpose, a stable cell line (Madin-Darby canine kidney, MDCK) was produced which constitutively expresses human ferroportin fused recombinantly at its C terminus with a fluorescent reporter protein (HaloTag®, Promega Corp.). The internalization of Fpn was monitored by labelling these cells with fluorescent ligands (HaloTag®-TMR, tetramethylrhodamine) which join covalently on to the HaloTag reporter gene fused with the Fpn. […] Optimized image analysis algorithms were used to ascertain the cell surface and to quantify the corresponding membrane fluorescence associated with the Fpn-HaloTag fusion protein. This assay allows a quantitative image-based analysis in order to quickly evaluate compounds which can block hepcidin-induced internalization of Fpn. This assay is a direct in vitro pendant of the in vivo action mechanism proposed for medicament candidates and is therefore suitable as an initial assay with a high throughput for identifying compounds which counteract the action of hepcidin on its receptor ferroportin.
• 7,500 cells per well (MDCK-FPN-HaloTag) were transinoculated in 50 μl of DMEM medium (Dulbeccos Modified Eagle Medium with 10% foetal bovine serum (FBS), which contained 1% penicillin, 1% streptomycin and 450 μg/ml of G-418) in microtitre plates with 384 wells (384 Cell carrier plates, Perkin Elmer, cat. no. 6007430), followed by incubation overnight at 37° C./5% CO2. • The volume of the medium was reduced to 10 μl, and 10 μl of 5 μM HaloTag-TMR ligands (Promega, cat. no. G 8251) were added in DMEM medium in order to stain the Fpn-HaloTag fusion protein. • 15 min incubation at 37° C./5% CO2 • The HaloTag-TMR ligand was removed and the cells were washed with fresh DMEM medium and the volume was reduced to 20 μl of DMEM medium. • 3 μl per well of a solution of the test compound (dissolved DMSO) were added ([…]). • 7 μl of […] hepcidin (Peptides International, cat. no. PLP-4392-s, 100 μM stock solution diluted in water in DMEM medium) were added per well up to a final hepcidin concentration of 100 nM. • The cells were incubated overnight at 37° C./5% CO2. • The cells were fixed by adding paraformaldehyde (PFA, Electron Microscopy Sciences, cat. no. 15710-S) directly to the cells up to a final concentration of 4%, followed by incubation at room temperature for 15-20 minutes. • The PFA solution was removed and the cells were washed with PBS (phosphate-buffered saline solution), in each case 30 μl remaining in the plate. • 20 μl of Draq5 (Biostatus, cat. no. DR 51000) were added up to a final concentration of 2.5 μM in order to stain the cell nuclei, and the plates were sealed with a foil plate seal. • The plates were analysed with the Opera Plate Imager (Opera Confocal Plate Imager, Perkin Elmer) with 7 images per well; 440 ms exposure time per image, […] focal point height.

Going from `O=C(c1ccc2c(c1)-c1cc(Cl)c3cccnc3c1NS2(=O)=O)N1CCOCC1` [Example 527, (12-Chloro-6,6-dioxo-5,6-dihydro-6λ*6*-thia-4,5-diaza-chrysen-9-yl)-morpholin-4-yl-methanone] to `O=S1(=O)Nc2c(cc(Cl)c3cccnc23)-c2cc(NCCN3CCOCC3)ccc21` [Example 511, (12-Chloro-6,6-dioxo-5,6-dihydro-6λ*6*-thia-4,5-diaza-chrysen-9-yl)-(2-morpholin-4-yl-ethyl)-amine], the IC50 falls from 2740 nM to 620 nM (4.4-fold).

First: COCCNc1cc2c(c3ncccc13)NS(=O)(=O)c1ccccc1-2 [Example 548, (6,6-Dioxo-5,6-dihydro-6λ*6*-thia-4,5-diaza-chrysen-12-yl)-(2-methoxy-ethyl)-amine]
Second: CN(C)CCNc1cc2c(c3ncccc13)NS(=O)(=O)c1ccccc1-2 [Example 546, N′-(6,6-Dioxo-5,6-dihydro-6λ*6*-thia-4,5-diaza-chrysen-12-yl)-N,N-dimethyl-ethane-1,2-diamine]
The IC50 of the first is 3.5-fold lower: 2830 nM for the first, 9980 nM for the second. The first is the more potent here.

Compared with `CN(C)c1ccc2c(c1)-c1ccc3cccnc3c1NS2(=O)=O` [Example 502, (6,6-Dioxo-5,6-dihydro-6λ*6*-thia-4,5-diaza-chrysen-9-yl)-dimethyl-amine], `O=S1(=O)Nc2c(ccc3cccnc23)-c2cc(F)ccc21` [Example 74, 9-Fluoro-5H-6-thia-4,5-diaza-chrysene 6,6-dioxide] is 1.7-fold higher in IC50: 910 nM for the first, 1560 nM for the second.

Going from `Cc1cnc2c(NS(=O)(=O)c3cccnc3)cccc2c1` [Example 72, Pyridine-3-sulfonic acid (3-methyl-quinolin-8-yl)-amide] to `O=S(=O)(Nc1cccc2cccnc12)c1cccnc1` [Example 33, Pyridine-3-sulfonic acid quinolin-8-ylamide], the IC50 rises from 1390 nM to 3640 nM (2.6-fold). The first is the more potent here.

Going from `CN1C(c2ccc(F)c(C(=O)N3CCOCC3)c2)c2ccc3cccnc3c2NS1(=O)=O` (stereo not drawn) [Example 428, [2-Fluoro-5-(2-methyl-3,3-dioxo-1,2,3,4-tetrahydro-3λ*6*-thia-2,4,5-triaza-phenanthren-1-yl)-phenyl]-morpholin-4-yl-methanone] to `CN1C(c2ccc(F)c(C(=O)O)c2)c2ccc3cccnc3c2NS1(=O)=O` (stereo not drawn) [Example 424, 2-Fluoro-5-(2-methyl-3,3-dioxo-1,2,3,4-tetrahydro-3λ*6*-thia-2,4,5-triaza-phenanthren-1-yl)-benzoic acid], the IC50 rises from 2620 nM to 5430 nM (2.1-fold). The first is the more potent here.

Going from `CN(C)CCNCc1cc(C2c3ccc4cccnc4c3NS(=O)(=O)N2C)ccc1F` (stereo not drawn) [Example 425, N′-[2-Fluoro-5-(2-methyl-3,3-dioxo-1,2,3,4-tetrahydro-3λ*6*-thia-2,4,5-triaza-phenanthren-1-yl)-benzyl]-N,N-dimethyl-ethane-1,2-diamine] to `O=S1(=O)Nc2c(ccc3cccnc23)C(c2ccc(F)cc2)N1` (stereo not drawn) [Example 398, 1-(4-Fluoro-phenyl)-1,4-dihydro-2H-3-thia-2,4,5-triaza-phenanthrene 3,3-dioxide], the IC50 falls from 7410 nM to 2780 nM (2.7-fold).

First: COc1cc(NS(=O)(=O)c2ccc(Cl)cc2F)c2ncccc2c1 [Example 57, 4-Chloro-2-fluoro-N-(6-methoxy-quinolin-8-yl)-benzenesulfonamide]
Second: O=S(=O)(Nc1cccc2cccnc12)c1ccc(Cl)cc1F [Example 42, 4-Chloro-2-fluoro-N-quinolin-8-yl-benzenesulfonamide]
The IC50 of the first is 2-fold higher: 1750 nM for the first, 873 nM for the second. The second is the more potent here.

Going from `O=S1(=O)Nc2c(cc(Cl)c3cccnc23)-c2cc(N3CCC(O)CC3)ccc21` [Example 504, 1-(12-Chloro-6,6-dioxo-5,6-dihydro-6λ*6*-thia-4,5-diaza-chrysen-9-yl)-piperidin-4-ol] to `Nc1ccc2c(c1)-c1cc(Cl)c3cccnc3c1NS2(=O)=O` [Example 519, 12-Chloro-6,6-dioxo-5,6-dihydro-6λ*6*-thia-4,5-diaza-chrysen-9-ylamine], the IC50 rises from 1100 nM to 3570 nM (3.2-fold). The first is the more potent here.

Compared with `O=S1(=O)Nc2c(cc(N3CCCC3)c3cccnc23)-c2ccccc21` [Example 553, 12-Pyrrolidin-1-yl-5H-6-thia-4,5-diaza-chrysene 6,6-dioxide], `O=S1(=O)Nc2c(cc(N3CCOCC3)c3cccnc23)-c2ccccc21` [Example 549, 12-Morpholin-4-yl-5H-6-thia-4,5-diaza-chrysene 6,6-dioxide] is 3.8-fold lower in IC50: 4360 nM for the first, 1140 nM for the second. The second is the more potent here.

Going from `COc1cccc(S(=O)(=O)Nc2cccc3cccnc23)c1` [Example 21, 3-Methoxy-N-quinolin-8-yl-benzenesulfonamide] to `O=S(=O)(Nc1cccc2cccnc12)c1cccc(Cl)c1` [Example 20, 3-Chloro-N-quinolin-8-yl-benzenesulfonamide], the IC50 falls from 1500 nM to 985 nM (1.5-fold). The second is the more potent here.

`O=S(=O)(Nc1cc(F)cc2cccnc12)c1cccnc1` [Example 96, Pyridine-3-sulfonic acid (6-fluoro-quinolin-8-yl)-amide] and `O=S(=O)(Nc1cccc2cccnc12)c1ccccc1` [Example 4, N-Quinolin-8-yl-benzenesulfonamide] are within 1.5-fold of each other in IC50: 5870 nM for the first, 4590 nM for the second.

Going from `O=C(NCCN1CCCCC1)c1ccnc2c3c(ccc12)-c1ccccc1S(=O)(=O)N3` [Example 544, 6,6-Dioxo-5,6-dihydro-6λ*6*-thia-4,5-diaza-chrysene-1-carboxylic acid (2-piperidin-1-yl-ethyl)-amide] to `Cc1cc2c(c3ncccc13)NS(=O)(=O)c1ccccc1-2` [Example 107, 12-Methyl-5H-6-thia-4,5-diaza-chrysene 6,6-dioxide], the IC50 falls from 2000 nM to 599 nM (3.3-fold). The second is the more potent here.

Going from `COCCN(C)c1cc2c(c3ncccc13)NS(=O)(=O)c1ccccc1-2` [Example 554, (6,6-Dioxo-5,6-dihydro-6λ*6*-thia-4,5-diaza-chrysen-12-yl)-(2-methoxy-ethyl)-methyl-amine] to `O=S1(=O)Nc2c(cc(C(F)(F)F)c3cccnc23)-c2ccccc21` [Example 311, 12-Trifluoromethyl-5H-6-thia-4,5-diaza-chrysene 6,6-dioxide], the IC50 rises from 550 nM to 14100 nM (26-fold).

Compared with `O=S(=O)(Nc1cccc2cccnc12)c1cccc(C(F)(F)F)c1` [Example 44, N-Quinolin-8-yl-3-trifluoromethyl-benzenesulfonamide], `Cc1c(Cl)cccc1S(=O)(=O)Nc1cccc2cccnc12` [Example 68, 3-Chloro-2-methyl-N-quinolin-8-yl-benzenesulfonamide] is 5.6-fold higher in IC50: 720 nM for the first, 4000 nM for the second.

First: COc1cc(NS(=O)(=O)c2ccc(C(F)(F)F)cc2N)c2ncccc2c1 [Example 65, 2-Amino-N-(6-methoxy-quinolin-8-yl)-4-trifluoromethyl-benzenesulfonamide]
Second: O=S1(=O)Nc2c(ccc3cccnc23)-c2ccc(C(F)(F)F)cc21 [Example 332, 8-Trifluoromethyl-5H-6-thia-4,5-diaza-chrysene 6,6-dioxide]
The IC50 of the first is 2.3-fold lower: 1000 nM for the first, 2340 nM for the second.

Going from `O=[N+]([O-])c1ccccc1S(=O)(=O)Nc1cccc2cccnc12` [Example 6, 2-Nitro-N-quinolin-8-yl-benzenesulfonamide] to `CN1Cc2ccc3cccnc3c2NS1(=O)=O` [Example 405, 2-Methyl-1,4-dihydro-2H-3-thia-2,4,5-triaza-phenanthrene 3,3-dioxide], the IC50 rises from 2900 nM to 6500 nM (2.2-fold). The first is the more potent here.

With `O=S1(=O)Nc2c(cc(F)c3cccnc23)-c2cc(C(F)(F)F)ccc21` [Example 306, 12-Fluoro-9-trifluoromethyl-5H-6-thia-4,5-diaza-chrysene 6,6-dioxide] the IC50 was 4190 nM.
